Experimental data: patent publication US20230357064A1, “ENZYME BOOSTER TECHNOLOGY FOR ADVANCED DECONTAMINATION OF PETROLEUM HYDROCARBONS” (priority 2022, published 2023)
In brackets after ≈: the same amount, converted by molar mass.

Test: physchem
Settings: for solubility: 15 °C, aqueous buffer
Experimental: It is very important to control the freely dissolved PAH concentration and keep it unchanged throughout the experiment by equilibrium partitioning from the silicone. […] During the loading of PAHs, individual PAHs were dissolved in methanol (loading solvent) to saturation level. To create the PAHs mixture, the concentration in the loading solution was calculated using partitioning coefficients for each PAH from Gilbert et. al. (2015).^39 Then, cleaned and dried O-rings were added to 50 mL volumes of loading solution kept at 15±1° C. A criterion for successful application of the passive dosing system was ensuring the mass of PAHs dissolved into methanol was much greater than that partitioned into the silicon O-ring which in turn was greater than that partitioned into the MSM^37. After 24, 72 and 128 h, O-ring was removed from each loading batch, and they were transferred into MSM to measure O-ring (Crest) and freely dissolved concentration of each PAH (Cfree) at 0.33, 0.66, 1.33, 2.66, 5.33, 12, 24,48, and 72 h. The partition coefficient between different phases (KMethanol:Oring and KOring:MSM) were obtained using the measured Ctest,initial and Cfree, initial. The obtained partitioning coefficient (KOring:MSM) was applied to calculate the required O-ring volume to avoid depletion (<5%) using the following Equation: […]
With a 5 mL MSM and partitioning coefficients from Table 10, the O-ring volume needed for each PAH and PAH mixture were determined. The initial concentrations of freely dissolved PAHs (Cfree initial) and O-ring concentrations (Ctest) in medium samples were calculated via the approach published by Butler et. al (2013).^37 Finally, for the determination of the losses, freely dissolved concentrations of PAHs were directly measured in medium samples to compare with calculated Cfree initial.
Two controls were included to study biodegradation versus dissolved concentrations. The first control contained 5 mL of strain inoculating suspension in passive doing vials with O-rings to account for losses through volatilization. The second control contained 5 mL of MSM without any strain in passive dosing vials in the presence of O-ring loaded with PAHs to account for losses through […].

| SMILES | Cfree (dissolved concentration measured in MSM) | Cfree initial (freely dissolved concentration) | Ctest initial (O-ring concentration) | losses through volatilization | time after which water concentration decreased due to volatility | solubility | Cfree (dissolved concentration measured in MSM) (MSM) | Cfree initial (freely dissolved concentration) (MSM) | losses through volatilization (control 1, passive dosing vials) | Ctest initial (O-ring concentration) (silicone O-ring) |
| --- | --- | --- | --- | --- | --- | --- | --- | --- | --- | --- |
| c1ccc2ccccc2c1 [Naphthalene] | 17.73 mg/L | 18.31 mg/L | 97.8 mg/L | 19% | about 4 h | 20.5 µg/mL (≈ 160 µM) | – | – | – | – |
| c1ccc2cc3ccccc3cc2c1 [Anthracene] | – | – | – | – | – | 3.11 µg/mL (≈ 17.4 µM) | 2.66 mg/L | 2.98 mg/L | 4% | 94.1 mg/L |
| c1ccc2c(c1)ccc1ccccc12 [Phenanthrene] | 0.91 mg/L | 1.01 mg/L | 48.6 mg/L | 0% | – | 1.04 µg/mL (≈ 5.84 µM) | – | – | – | – |
